Results: ChEMBL document CHEMBL4177586, “Small molecule adjuvants that suppress both chromosomal and mcr-1 encoded colistin-resistance and amplify colistin efficacy in polymyxin-susceptible bacteria” (Bioorg Med Chem, 2017)
Values after ≈ are worked out from the molar mass of the structure shown. Active and inactive are the calls of the source. No cut-off for these calls is given here.

Assays:
Escherichia coli = assay: Potentiation of colistin-induced antimicrobial activity against Escherichia coli ATCC 25922 expressing mcr1 gene assessed as colistin MIC at 60 uM incubated for overnight duration by CLSI based method (reference value: 8 ug/ml); assay type: functional
Acinetobacter baumannii [1] = assay: Potentiation of colistin-induced antimicrobial activity against Acinetobacter baumannii ATCC 17978 expressing mcr1 gene assessed as reduction in colistin MIC at 60 uM incubated for overnight duration by CLSI based method relative to colistin alone control; assay type: functional
Klebsiella pneumoniae [2] = assay: Potentiation of colistin-induced antimicrobial activity against Klebsiella pneumoniae 2210291 expressing mcr1 gene assessed as reduction in colistin MIC at 60 uM incubated for overnight duration by CLSI based method relative to colistin alone control; assay type: functional
Acinetobacter baumannii [3] = assay: Potentiation of colistin-induced antimicrobial activity against colistin-resistant Acinetobacter baumannii PM3941 assessed as colistin MIC at 60 uM incubated for overnight duration by CLSI based method (reference value: 512 ug/ml); assay type: functional
Acinetobacter baumannii [4] = assay: Potentiation of colistin-induced antimicrobial activity against colistin-resistant Acinetobacter baumannii PM4112 assessed as colistin MIC at 60 uM incubated for overnight duration by CLSI based method (reference value: 1024 ug/ml); assay type: functional
Acinetobacter baumannii [5] = assay: Potentiation of colistin-induced antimicrobial activity against colistin-resistant Acinetobacter baumannii PM4119 assessed as colistin MIC at 60 uM incubated for overnight duration by CLSI based method (reference value: 1024 ug/ml); assay type: functional
Klebsiella pneumoniae [6] = assay: Potentiation of colistin-induced antimicrobial activity against colistin-resistant Klebsiella pneumoniae C3 assessed as colistin MIC at 60 uM incubated for overnight duration by CLSI based method (reference value: 512 ug/ml); assay type: functional
Klebsiella pneumoniae [7] = assay: Potentiation of colistin-induced antimicrobial activity against colistin-resistant Klebsiella pneumoniae C5 assessed as colistin MIC at 60 uM incubated for overnight duration by CLSI based method (reference value: 128 ug/ml); assay type: functional
Acinetobacter baumannii [8] = assay: Potentiation of colistin-induced antimicrobial activity against colistin-resistant Acinetobacter baumannii PM3941 assessed as colistin MIC at 30 uM incubated for overnight duration by CLSI based method (reference value: 512 ug/ml); assay type: functional
Acinetobacter baumannii [9] = assay: Potentiation of colistin-induced antimicrobial activity against colistin-resistant Acinetobacter baumannii PM4112 assessed as colistin MIC at 30 uM incubated for overnight duration by CLSI based method (reference value: 1024 ug/ml); assay type: functional
Acinetobacter baumannii [10] = assay: Potentiation of colistin-induced antimicrobial activity against colistin-resistant Acinetobacter baumannii PM4119 assessed as colistin MIC at 30 uM incubated for overnight duration by CLSI based method (reference value: 1024 ug/ml); assay type: functional
Klebsiella pneumoniae [11] = assay: Potentiation of colistin-induced antimicrobial activity against colistin-resistant Klebsiella pneumoniae B9 assessed as colistin MIC at 30 uM incubated for overnight duration by CLSI based method (reference value: 512 ug/ml); assay type: functional
Acinetobacter baumannii [12] = assay: Potentiation of colistin-induced antimicrobial activity against colistin-resistant Acinetobacter baumannii PM3941 assessed as colistin MIC at 15 uM incubated for overnight duration by CLSI based method (reference value: 512 ug/ml); assay type: functional
Acinetobacter baumannii [13] = assay: Potentiation of colistin-induced antimicrobial activity against colistin-resistant Acinetobacter baumannii PM3942 assessed as colistin MIC at 15 uM incubated for overnight duration by CLSI based method (reference value: 512 ug/ml); assay type: functional
Acinetobacter baumannii [14] = assay: Potentiation of colistin-induced antimicrobial activity against colistin-resistant Acinetobacter baumannii PM4119 assessed as colistin MIC at 15 uM incubated for overnight duration by CLSI based method (reference value: 1024 ug/ml); assay type: functional
Klebsiella pneumoniae [15] = assay: Potentiation of colistin-induced antimicrobial activity against colistin-resistant Klebsiella pneumoniae B9 assessed as colistin MIC at 15 uM incubated for overnight duration by CLSI based method (reference value: 512 ug/ml); assay type: functional
Klebsiella pneumoniae [16] = assay: Potentiation of colistin-induced antimicrobial activity against colistin-resistant Klebsiella pneumoniae C5 assessed as colistin MIC at 15 uM incubated for overnight duration by CLSI based method (reference value: 128 ug/ml); assay type: functional
Acinetobacter baumannii [17] = assay: Potentiation of colistin-induced antimicrobial activity against colistin-resistant Acinetobacter baumannii PM3941 assessed as reduction in colistin MIC at 15 uM incubated for overnight duration by CLSI based method relative to colistin alone control; assay type: functional
Acinetobacter baumannii [18] = assay: Reduction in lipid A modification in Acinetobacter baumannii ATCC 17978 at 30 uM incubated for 24 hrs by MALDI-TOF mass spectrometry; assay type: functional, organism-based
Acinetobacter baumannii [19] = assay: Toxicity against multidrug resistant Acinetobacter baumannii BAA1605 incubated for overnight duration by CLSI based method; assay type: organism-based; details: in vivo

SMILES: CCCCCc1ccc(C(=O)NCCn2cc(CCCCCc3cnc(N)n3Cc3ccc(CCCC)cc3)nn2)cc1
- MIC (Escherichia coli): 0.031 µg/mL
- fold change (FC) (Acinetobacter baumannii [1]): 64
- fold change (FC) (Klebsiella pneumoniae [2]): 128
- MIC (Acinetobacter baumannii [3]): 8 µg/mL
- MIC (Acinetobacter baumannii [4]): 8 µg/mL
- MIC (Acinetobacter baumannii [5]): 2 µg/mL
- MIC (Klebsiella pneumoniae [6]): 8 µg/mL
- MIC (Klebsiella pneumoniae [7]): 2 µg/mL
- MIC (Acinetobacter baumannii [8]): 16 µg/mL
- MIC (Acinetobacter baumannii [9]): 16 µg/mL
- MIC (Acinetobacter baumannii [10]): 4 µg/mL
- MIC (Klebsiella pneumoniae [11]): 8 µg/mL
- MIC (Acinetobacter baumannii [12]): 32 µg/mL
- MIC (Acinetobacter baumannii [13]): 32 µg/mL
- MIC (Acinetobacter baumannii [14]): 16 µg/mL
- MIC (Klebsiella pneumoniae [15]): 32 µg/mL
- MIC (Klebsiella pneumoniae [16]): 32 µg/mL
- fold change (FC) (Acinetobacter baumannii [17]): 16

SMILES: CCCCCCc1ccc(-c2cn(C(C)C)c(N)n2)cc1
- Activity (Acinetobacter baumannii [18]): Active

SMILES: CCCCCCc1ccc(-c2cn(CC)c(N)n2)cc1
- MIC (Acinetobacter baumannii [19]): 200 µM (≈ 54.3 µg/mL)
